pIC50: −log10 of the molar value. Values joined by “and” are separate entries in the source; they are usually repeats but may differ in a detail not shown here. Equal values may be shown once. Read-outs that look alike come from different tables or passages of the source.
How the values were obtained:
[1] = tested on: PC-3; assay: NCI one-dose screening, prostate cancer PC-3; format: cell-based, human; conditions: 10 μM
[2] = tested on: SR; assay: NCI one-dose screening, leukemia SR; format: cell-based, human; conditions: 10 μM
[3] = tested on: TK-10; assay: NCI one-dose screening, renal cancer TK-10; format: cell-based, human; conditions: 10 μM
[4] = tested on: IGROV1; assay: NCI one-dose screening, ovarian cancer IGROV1; format: cell-based, human; conditions: 10 μM
[5] = tested on: SK-OV-3; assay: NCI one-dose screening, ovarian cancer SK-OV-3; format: cell-based, human; conditions: 10 μM
[6] = tested on: SNB-75; assay: NCI one-dose screening, CNS cancer SNB-75; format: cell-based, human; conditions: 10 μM
[7] = tested on: UACC-257; assay: NCI one-dose screening, melanoma UACC-257; format: cell-based, human; conditions: 10 μM
[8] = tested on: 786-O; assay: NCI one-dose screening, renal cancer 786-O; format: cell-based, human; conditions: 10 μM
[9] = tested on: DU145; assay: NCI one-dose screening, prostate cancer DU145; format: cell-based, human; conditions: 10 μM
[10] = tested on: SF-268; assay: NCI one-dose screening, CNS cancer SF-268; format: cell-based, human; conditions: 10 μM
[11] = tested on: OVCAR-3; assay: NCI one-dose screening, ovarian cancer OVCAR-3; format: cell-based, human; conditions: 10 μM
[12] = tested on: HOP-62; assay: NCI one-dose screening, non-small cell lung cancer HOP-62; format: cell-based, human; conditions: 10 μM
[13] = tested on: SF-295; assay: NCI one-dose screening, CNS cancer SF-295; format: cell-based, human; conditions: 10 μM
[14] = tested on: HCT-116; assay: NCI one-dose screening, colon cancer HCT-116; format: cell-based, human; conditions: 10 μM
[15] = tested on: U251; assay: NCI one-dose screening, CNS cancer U251; format: cell-based, human; conditions: 10 μM
[16] = NCI one-dose screening, renal cancer A489; format: cell-based, human; conditions: 10 μM
[17] = tested on: CAKI-1; assay: NCI one-dose screening, renal cancer CAKI-1; format: cell-based, human; conditions: 10 μM
[18] = tested on: SF-539; assay: NCI one-dose screening, CNS cancer SF-539; format: cell-based, human; conditions: 10 μM
[19] = tested on: CCRF-CEM; assay: NCI screening platform one-dose single concentration screening, leukemia CCRF-CEM; format: cell-based, human; conditions: 10 μM
[20] = tested on: NCI-H322M; assay: NCI one-dose screening, non-small cell lung cancer NCI-H322M; format: cell-based, human; conditions: 10 μM; Non-small cell lung cancer
[21] = tested on: HS 578-T; assay: NCI one-dose screening, breast cancer HS 578-T; format: cell-based, human; conditions: 10 μM; Breast cancer
[22] = tested on: MDA-MB-468; assay: NCI one-dose screening, breast cancer MDA-MB-468; format: cell-based, human; conditions: 10 μM
[23] = tested on: M14; assay: NCI one-dose screening, melanoma M14; format: cell-based, human; conditions: 10 μM
[24] = tested on: SNB-19; assay: NCI one-dose screening, CNS cancer SNB-19; format: cell-based, human; conditions: 10 μM
[25] = tested on: MALME-3M; assay: NCI one-dose screening, melanoma MALME-3M; format: cell-based, human; conditions: 10 μM
[26] = tested on: SK-MEL-5; assay: NCI one-dose screening, melanoma SK-MEL-5; format: cell-based, human; conditions: 10 μM
[27] = tested on: COLO 205; assay: NCI one-dose screening, colon cancer COLO 205; format: cell-based, human; conditions: 10 μM
[28] = tested on: NCI-H522; assay: NCI one-dose screening, non-small cell lung cancer NCI-H522; format: cell-based, human; conditions: 10 μM
[29] = tested on: OVCAR-4; assay: NCI one-dose screening, ovarian cancer OVCAR-4; format: cell-based, human; conditions: 10 μM
[30] = tested on: HOP-92; assay: NCI one-dose screening, non-small cell lung cancer HOP-92; format: cell-based, human; conditions: 10 μM
[31] = tested on: OVCAR-8; assay: NCI one-dose screening, ovarian cancer OVCAR-8; format: cell-based, human; conditions: 10 μM
[32] = tested on: KM12; assay: NCI one-dose screening, colon cancer KM12; format: cell-based, human; conditions: 10 μM
[33] = tested on: T-47D; assay: NCI one-dose screening, breast cancer T-47D; format: cell-based, human; conditions: 10 μM
[34] = tested on: MCF7; assay: NCI one-dose screening, breast cancer MCF7; format: cell-based, human; conditions: 10 μM
[35] = tested on: UO-31; assay: NCI one-dose screening, renal cancer UO-31; format: cell-based, human; conditions: 10 μM
[36] = tested on: HCT-15; assay: NCI one-dose screening, colon cancer HCT-15; format: cell-based, human; conditions: 10 μM
[37] = tested on: UACC-62; assay: NCI one-dose screening, melanoma UACC-62; format: cell-based, human; conditions: 10 μM
[38] = tested on: K562cell line; assay: NCI one-dose screening, leukemia K562; format: cell-based, human; conditions: 10 μM
[39] = tested on: A549/ATCC; assay: NCI one-dose screening, non-small cell lung cancer A549/ATCC; format: cell-based, human; conditions: 10 μM
[40] = tested on: PRMI-8226 cell line; assay: NCI one-dose screening, leukemia PRMI-8226; format: cell-based, human; conditions: 10 μM
[41] = tested on: SK-MEL-2; assay: NCI one-dose screening, melanoma SK-MEL-2; format: cell-based, human; conditions: 10 μM
[42] = tested on: SK-MEL-28; assay: NCI one-dose screening, melanoma SK-MEL-28; format: cell-based, human; conditions: 10 μM
[43] = tested on: MOLT-4; assay: NCI one-dose screening, leukemia MOLT-4; format: cell-based, human; conditions: 10 μM
[44] = tested on: NCI-H23; assay: NCI one-dose screening, non-small cell lung cancer NCI-H23; format: cell-based, human; conditions: 10 μM
[45] = tested on: PC-3 prostate cancer cell line; assay: SRB assay cell viability, PC-3 prostate cancer cell line; format: cell-based, human; conditions: Homo sapiens
[46] = tested on: NCI-H226; assay: NCI one-dose screening, non-small cell lung cancer NCI-H226; format: cell-based, human; conditions: 10 μM
[47] = tested on: SN12C; assay: NCI one-dose screening, renal cancer SN12C; format: cell-based, human; conditions: 10 μM
[48] = tested on: MDA-MB-231/ATCC; assay: NCI one-dose screening, breast cancer MDA-MB-231/ATCC; format: cell-based, human; conditions: 10 μM
[49] = tested on: NCI-H460; assay: NCI one-dose screening, non-small cell lung cancer NCI-H460; format: cell-based, human; conditions: 10 μM
[50] = tested on: HL-60, TB; assay: NCI one-dose screening, leukemia HL-60, TB; format: cell-based, human; conditions: 10 μM
[51] = tested on: HCC-2998; assay: NCI one-dose screening, colon cancer HCC-2998; format: cell-based, human; conditions: 10 μM
[52] = tested on: RXF, 393; assay: NCI one-dose screening, renal cancer RXF, 393; format: cell-based, human; conditions: 10 μM
[53] = tested on: LOX IMVI; assay: NCI one-dose screening, melanoma LOX IMVI; format: cell-based, human; conditions: 10 μM
[54] = tested on: human tumor cell lines; assay: NCI one-dose screening, Mean / Delta / Range of growth percent over all tested cell lines; format: cell-based; conditions: 10 μM
[55] = tested on: BT-549; assay: NCI one-dose screening, breast cancer BT-549; format: cell-based, human; conditions: 10 μM

Compound: O=C1c2ccccc2C(=O)c2c1cc(Sc1ccccc1)c1nsnc21 [C19, 4-(phenylthio)anthra[2,1-c][1,2,5] thiadiazol-6,11-dione]
- Growth Percent PC-3 [1]: 87.32%
- Growth Percent SR [2]: 86.41%
- Growth Percent TK-10 [3]: 143.47%
- Growth Percent IGROV1 [4]: 84.4%
- Growth Percent SK-OV-3 [5]: 105.6%
- Growth Percent SNB-75 [6]: 96.12%
- Growth Percent UACC-257 [7]: 92.75%
- Growth Percent 786-0 [8]: 110.04%
- Growth Percent DU145 [9]: 102.73%
- Growth Percent SF-268 [10]: 102.24%
- Growth Percent OVCAR-3 [11]: 96.67%
- Growth Percent HOP-62 [12]: 97.77%
- Growth Percent SF-295 [13]: 106.36%
- Growth Percent HCT-116 [14]: 90.08%
- Growth Percent U251 [15]: 88.75%
- Growth Percent A498 [16]: 95.01%
- Growth Percent CAKI-1 [17]: 89.04%
- Growth Percent SF-539 [18]: 106.54%
- Growth Percent CCRF-CEM [19]: 15.74%
- Growth Percent NCI-H322M [20]: 79.21%
- Growth Percent HS 578T [21]: 95.89%
- Growth Percent MDA-MB-468 [22]: 87.29%
- Growth Percent M14 [23]: 106.41%
- Growth Percent SNB-19 [24]: 108.79%
- Growth Percent MALME-3M [25]: 106.43%
- Growth Percent SK-MEL-5 [26]: 85.68%
- Growth Percent COLO 205 [27]: 117.53%
- Growth Percent NCI-H522 [28]: 100.56%
- Growth Percent OVCAR-4 [29]: 57.83%
- Growth Percent HOP-92 [30]: 110.22%
- Growth Percent OVCAR-8 [31]: 82.3%
- Growth Percent KM12 [32]: 99.5%
- Growth Percent T-47D [33]: 93.21%
- Growth Percent MCF7 [34]: 94.88%
- Growth Percent UO-31 [35]: 80.12%
- Growth Percent HCT-15 [36]: 93.89%
- Growth Percent UACC-62 [37]: 86.28%
- Growth Percent K562 [38]: 52.03%
- Growth Percent A549/ATCC [39]: 105.68%
- Growth Percent RPMI-8226 [40]: 78.21%
- Growth Percent SK-MEL-2 [41]: 112.49%
- Growth Percent SK-MEL-28 [42]: 127.12%
- Growth Percent MOLT-4 [43]: 31.08%
- Growth Percent NCI-H23 [44]: 101.59%
- IC50 ([45]; PC-3 prostate cancer cell line, Table II prints no unit, μM printed, read-out: SRB assay: 50% inhibition of cancer cell proliferation of sample concentration (IC50) of PC-3 prostate cancer cell line): 28.6 µM
- pIC50 ([45]; PC-3 prostate cancer cells, read-out: IC50 in PC-3 prostate cancer cells (cell viability analysis)): < 4.82
- Growth Percent NCI-H226 [46]: 117.67% and 94.91%
- Growth Percent SN12C [47]: 96.58%
- Growth Percent MDA-MB-231/ATCC [48]: 66.67%
- Growth Percent NCI-H460 [49]: 100.74%
- Growth Percent HL-60(TB) [50]: 83.94%
- Growth Percent HCC-2998 [51]: 110.88%
- Growth Percent RXF 393 [52]: 114.31%
- Growth Percent LOX IMVI [53]: 42%
- Growth Percent Delta ([54]; delta over all cell lines): 77.74%
- Growth Percent Mean ([54]; mean over all cell lines): 93.48%
- Growth Percent Range ([54]; range over all cell lines): 123.73%
- Growth Percent BT-549 [55]: 104.68%

Source: patent US8877748B2, “Heterocyclic fused anthraquinone derivatives, manufacturing method and pharmaceutical composition using thereof” (National Defense Medical Center, priority 2012, dated 2014)
